Tests used:
[1] = test system: KB cell line; experiment: Cell growth inhibition assay on human cancer lines, parental KB; format: cell-based; conditions: cell type Oral, read-out: Cytotoxicity against KB
Experimental: (§1) Cell Growth Inhibition Assay: MCF-7 breast carcinoma cells were maintained in plastic dishes in DMEM medium supplemented with 10% fetal bovine serum. For in vitro treatment, tumor cells were seeded in […] of culture medium/well in 96-well plates to a final cell density of 6×10^3 cell/mL and incubated in a CO2 incubator at 37° C. for 24 h. The cells were treated with at least five different concentrations of a test indole compound, and incubated in a CO2 incubator at 37° C. for 72 h. The number of viable cells was estimated using MTS assay and absorbance was measured at 490 nm. Cytotoxicity of the test compounds was expressed in terms of IC50 values. The values presented represent averages of three independent experiments, each with duplicate samples.
(§2) Cell Growth Inhibition Assay on Multiple-drug Resistant Human Cancer Lines: Indole compounds were tested against several panels of drug-resistant cell lines. It is well known that several anti-mitotic agents, including vinca alkaloid (vincristine, vinblastine) and taxol, have been introduced in clinic to treat various human cancers. […] The mechanisms responsible for taxol resistance include overexpression of p-glycoprotein and mutation of tubulin. For comparison, […] anti-mitotic agents, i.e., Vincristine, VP-16, Cisplatin, CPT (camptothecin), and Taxol (paclitaxel) were also tested against several panels of drug-resistant cell lines. […]

[2] = test system: HONE-1 cell line; experiment: Cell growth inhibition assay on human cancer lines, parental HONE-1; format: cell-based; conditions: NPC, read-out: Cytotoxicity against HONE-1
Experimental: as §1, §2

[3] = test system: human cancer cells, including multi-drug resistant cancer cells; conditions: wide variety of human cancer cells; cited from earlier work
[4] = test system: colchicine binding site on tubulin; conditions: compared with colchicine; cited from earlier work
[5] = test system: angiogenesis; conditions: cited from earlier work
[6] = cited from earlier work

Q: Which IC50 [1] does the source give for `N.N.[Cl][Pt][Cl]` [Cisplatin] here?
A: 0.003 µM

Q: What about the IC50 [2] of the same molecule?
A: 3 µM

Q: With `COc1ccc(/C=C\c2cc(OC)c(OC)c(OC)c2)cc1O` [CA-4, combretastatin A-4] as the molecule, how does the “Cytotoxicity against human cancer cells” value [3] read?
A: strong cytotoxicity

Q: And the “Affinity for the colchicine binding site on tubulin relative to colchicine” value [4]?
A: higher affinity for the colchicine binding site on tubulin than colchicine itself

Q: And the Anti-angiogenesis activity [5]?
A: anti-angiogenesis activity

Q: What about the Water-solubility [6] of the same molecule?
A: low water-solubility
